In assay [1] the test system is Staphylococcus aureus ATCC 19636 (Smith). Kind of assay: microbe, parasite or virus in culture. The note with it: for MIC: Staphylococcus aureus. As to the method: (§1) The S. aureus strains ATCC 29213, ATCC 19636, ATCC 33591 (MRSA), BAA-1556 (MRSA USA 300) were obtained from the American Type Culture Collection (ATCC). […] The species identity was confirmed with 16S rRNA analysis.
(§2) Two broth mediums were used, Mueller Hinton Broth and RPMI 1640+5% fetal bovine serum. Test substances were evaluated in 11-point titrations and performed in duplicate.
(§3) The direct colony suspension method was used to prepare inoculated broth. Isolated colonies were taken from an 18-24 h culture plate. Optical density measurements (OD620nm) were used to estimate the bacterial density. […] The stock solutions were diluted by 2-fold serial titrations with their respective vehicles for a total of 11 concentrations.
(§4) A 4 μL aliquot of each dilution was added to 196 μL of broth medium seeded with the organism in wells of a sterilized 96 well polypropylene plate (Nunc™ 249949) using aluminum foil as cover. The final bacterial count was 2 to 8×10^5 CFU/mL. […] The final test article concentration range was 32 to 0.0313 μg/mL.
(§5) Each test substance dilution was evaluated in duplicate on one test occasion. […] Plates were incubated at 35-37° C. for 18 h. The test plates were visually examined and each well was visually scored for growth or complete inhibition of growth. The MIC value was recorded.

Assay [2] deals with Staphylococcus aureus ATCC 29213. Nature of the assay: microbe, parasite or virus in culture. The note with it: for MIC: Staphylococcus aureus. As to the method:
as §1, §2, §3, §4, §5

Assay [3] deals with Staphylococcus aureus ATCC 33591 (MRSA). Nature of the assay: microbe, parasite or virus in culture. Particulars: for MIC: Staphylococcus aureus. As to the method:
as §1, §2, §3, §4, §5

Assay [4] relates to Staphylococcus aureus ATCC BAA-1556 (USA300, MRSA). Nature of the assay: microbe, parasite or virus in culture. The note with it: for MIC: Staphylococcus aureus. As to the method: as §1, §2, §3, §4, §5
Assay [5] has as its system Staphylococcus aureus VRS-2 (VanA, VRSA). Nature of the assay: microbe, parasite or virus in culture. Particulars: for MIC: Staphylococcus aureus, VRSA. As to the method:
as §1, §2, §3, §4, §5

A further assay has as its system EMRSA-15 lung infection. As to the method:
Murine EMRSA-15 lung infection model. In one embodiment this was carried out using the method described previously,^58 an overnight culture of EMRSA-15 was prepared in tryptic soy broth (TSB). EMRSA-15 was cultured in TSB overnight at 37° C., adjusted to a starting OD600 of 0.025, and grown for additional 4 h for agar beads preparation. EMRSA-15 was embedded into agar beads by mixing the overnight culture with molten tryptic soy agar, which was then spun into warmed mineral oil. The preparation was cooled and centrifuged at 2,700 g, the remaining oil was eliminated and the beads were washed in sterile PBS. The colony forming unit (cfu) content of the beads slurry was subsequently quantified on TSA plates and the beads slurry then diluted to either 2×10^7 cfu/ml in sterile PBS to deliver a final dose of either 1×10^6 cfu/mouse. Animal work was performed in accordance with the Animals (Scientific Procedures) Act of 1986 (United Kingdom). On day 0, male C57B16J mice (8-10 weeks, Charles River) were anesthetized under Isoflurane and 50 μl inoculum of EMRSA-15 embedded in agar beads (10^6 cfu/mouse) was instilled directly into the respiratory tract via oropharyngeal dosing (o.a) to reduce severity associated with surgery. Sham control mice were inoculated with sterile PBS agar beads. […] Body weight was measured daily, and animals monitored at regular intervals for signs of pain and distress. 48 hours post pulmonary infection, animals were terminally euthanized using 25% Urethane via intra-peritoneal injection. Lungs, were removed and homogenized in 2 ml PBS. Samples were serially diluted 1:10 in PBS and plated for CFU count. Lung homogenates were then centrifuged at 14000 rpm for 30 min at 4° C. and the supernatants were stored at −80° C. for future analysis. For bronchoalveolar lavage fluid collection and analysis (total and differential cell count), a 22-gauge catheter was inserted into the trachea and BAL was recovered by instillation of 0.5 ml of sterile PBS three times and total cells counts were performed by adding Turks stain in a 1:1 ratio. Total cells were then enumerated on an improved Naubauer haemocytometer. BAL fluid was then centrifuged, and supernatants were stored at −20° C. Cytospin slides were prepared and 100 μl of BAL was added into a cytospin funnel and centrifuged at 1000 rpm for 1 minute on a medium acceleration. The slides were then stained using Diff-Quick (Dade, Biomap, Italy).
More suitably Murine EMRSA-15 lung infection model was carried out using the method described previously,^58 an overnight culture of EMRSA-15 was prepared in tryptic soy broth (TSB). EMRSA-15 was cultured in TSB overnight at 37° C., adjusted to a starting OD600 of 0.025, and grown for additional 4 h for agar beads preparation. EMRSA-15 was embedded into agar beads by mixing the overnight culture with molten tryptic soy agar, which was then spun into warmed mineral oil. The preparation was cooled and centrifuged at 2,700 g, the remaining oil was eliminated, and the beads were washed in sterile PBS. The colony forming unit (CFU) content of the beads slurry was subsequently quantified on TSA plates and the beads slurry then diluted to either 2×10^7 CFU/ml in sterile PBS to deliver a final dose of either 1×10^6 CFU/mouse. Animal work was performed in accordance with the Animals (Scientific Procedures) Act of 1986 (United Kingdom). On day 0, male C57B16J mice (8-10 weeks, Charles River) were anesthetized under Isoflurane and 50 μl inoculum of EMRSA-15 embedded in agar beads (10^6 CFU/mouse) was instilled directly into the respiratory tract via oropharyngeal dosing (o.a.) to reduce severity associated with surgery. Sham control mice were inoculated with sterile PBS agar beads.

Assay [6] concerns P. aeruginosa RP73 lung infection. Kind of assay: Murine P. aeruginosa RP73 lung infection model. The class given is in vivo, mouse.

Each structure is given as a SMILES string. ≈ marks a conversion by molar mass, not a printed value. Like-named read-outs stand apart in the source and are kept apart here. Bounds are passed on as bounds.

For `CN[C@H](CC(C)C)C(=O)N[C@H]1C(=O)N[C@@H](CC(N)=O)C(=O)N[C@H]2C(=O)N[C@H]3C(=O)N[C@H](C(=O)N[C@H](C(=O)O)c4cc(O)cc(O)c4-c4cc3ccc4O)[C@H](O)c3ccc(c(Cl)c3)Oc3cc2cc(c3O[C@@H]2O[C@H](CO)[C@@H](O)[C@H](O)[C@H]2O[C@H]2C[C@](C)(N)[C@H](O)[C@H](C)O2)Oc2ccc(cc2Cl)[C@H]1O` [Vancomycin], the “susceptibility category (CLSI M100 interpretive criteria)” value is given as “S” in assay [1] (ATCC 19636 (Smith)); “S” in assay [2] (ATCC 29213); “S” in assay [3] (ATCC 33591); “S” in assay [4] (BAA-1556); “R” in assay [5] (VRS-2). Besides, the MIC is 1 µg/mL (≈ 0.69 µM) in assay [1] (ATCC19636, 18 h, read-out: MIC, antibiotic susceptibility, ATCC 19636 (Smith), CLSI M7-A10, unit inferred); 0.5 µg/mL (≈ 0.345 µM) in assay [1] (ATCC19636, ATCC 19636 (Smith), MHB); 2 µg/mL in assay [1] (ATCC19636, ATCC 19636 (Smith), RPMI + 5% FBS); 0.5 to 1 µg/mL (≈ 0.345 to 0.69 µM) in assay [2] (ATCC29213, 18 h, read-out: MIC, antibiotic susceptibility, ATCC 29213, CLSI M7-A10, unit inferred); 0.5 µg/mL (≈ 0.345 µM) in assay [2] (ATCC29213, ATCC 29213, MHB); 2 µg/mL in assay [2] (ATCC29213, ATCC 29213, RPMI + 5% FBS). Also, the MIC in assay [3] (ATCC 33591, MHB) is 1 µg/mL (≈ 0.69 µM); in assay [3] (ATCC 33591, RPMI + 5% FBS), 4 µg/mL; in assay [3] (ATCC33591|MRSA, 18 h, read-out: MIC, antibiotic susceptibility, ATCC 33591, CLSI M7-A10, unit inferred), 1 µg/mL (≈ 0.69 µM); in assay [4] (ATCC BAA-1556, MHB) it was 0.5 µg/mL (≈ 0.345 µM); in assay [4] (ATCC BAA-1556, RPMI + 5% FBS), 2 µg/mL; in assay [4] (ATCCBAA1556|BAA1556|MRSA|USA300, 18 h, read-out: MIC, antibiotic susceptibility, BAA-1556, CLSI M7-A10, unit inferred) it was 0.5 to 1 µg/mL (≈ 0.345 to 0.69 µM). Moreover, the MIC was over 64 µg/mL in assay [5] (18 h, read-out: MIC, antibiotic susceptibility, VRS-2, CLSI M7-A10, unit inferred); 4 µg/mL (≈ 2.76 µM) in assay [5] (VRS-2, MHB); over 32 µg/mL in assay [5] (VRS-2, RPMI + 5% FBS). Also, the “IL-6 and neutrophil recruitment in BAL” value in the assay on EMRSA-15 lung infection (following therapy, i.v.) is reported as “reduced”. Also, in the assay with EMRSA-15 lung infection (following therapy, i.v.), the “macrophage numbers, TNFα and MCP-1 levels in BAL” value is “No effects”. Besides, the “effective cumulative dose over 48 hrs” value in the assay on EMRSA-15 lung infection (murine EMRSA-15 lung infection) amounted to 200 mg/kg. In addition, the “mouse KC levels in BAL” value with EMRSA-15 lung infection (vancomycin 600 mg/kg or the two higher D-pleurocidin-KR doses (15, 1.5 mg/kg cumulative)) is recorded as “KC levels to fall to that of the uninfected group”.
For `NC[C@H]1O[C@H](O[C@H]2[C@H](O)[C@@H](O[C@H]3O[C@H](CO)[C@@H](O)[C@H](N)[C@H]3O)[C@H](N)C[C@@H]2N)[C@H](N)C[C@@H]1O` [tobramycin], the figures for the “reduction in lung CFU” value in assay [6] (25 mg/kg tobramycin (p=0.0919)) and in assay [6] (cumulative dose of 200 mg/kg tobramycin over 30 hours) were 0.8 log10 and 1.4 log10, respectively.

For the origin of these results see patent publication US20230047825A1, “ANTIMICROBIAL PEPTIDES” (priority 2019, published 2023).
